Test results: US20240123078A1, “COMPOUNDS AND METHODS FOR MODULATING IMMUNE-RELATED PROTEINS” (Vividion Therapeutics, Inc., priority 2019, published 2024)

What was measured:
[1] = molecular target: T1, ACAT1 Acetyl-CoA acetyltransferase, mitochondrial C119 (P24752) (Homo sapiens, UniProt P24752); assay: Cysteine reactivity ABPP; type: binding
T1 construct: endogenous in cells; host or cells: primary human T cells
T1 sequence (P24752 34-427): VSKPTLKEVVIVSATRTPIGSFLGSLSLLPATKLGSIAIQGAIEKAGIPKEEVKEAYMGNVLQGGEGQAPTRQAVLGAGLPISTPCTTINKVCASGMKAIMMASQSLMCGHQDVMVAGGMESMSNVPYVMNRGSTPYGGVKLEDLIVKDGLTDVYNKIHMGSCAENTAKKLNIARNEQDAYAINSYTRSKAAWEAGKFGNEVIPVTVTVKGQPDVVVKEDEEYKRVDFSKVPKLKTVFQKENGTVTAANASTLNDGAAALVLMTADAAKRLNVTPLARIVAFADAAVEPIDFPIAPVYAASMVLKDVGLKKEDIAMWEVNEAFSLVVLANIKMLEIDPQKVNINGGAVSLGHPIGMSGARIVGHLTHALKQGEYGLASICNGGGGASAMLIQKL
Procedure: (§1) Activated or expanded primary human T cells were re-suspended in RPMI (1×10^6 cells/mL) containing 10% fetal bovine serum (FBS), penicillin (100 U/mL), streptomycin ([…]), and L-glutamine (2 mM). The cells were treated with DMSO or compounds for 3 h, pelleted (524 g, 5 min), washed with PBS, and lysed by sonication (2×8 pulses). Soluble and particulate proteomic fractions were separated by ultracentrifugation (100,000 g, 45 min), and protein concentration was normalized to 1.7 mg/mL using a standard DC protein assay (Bio-Rad). The resulting proteomes were analyzed by competitive isotopic Tandem Orthogonal Proteolysis Activity-Based Protein Profiling (isoTOP-ABPP).
(§2) The heavy/light isoTOP-ABPP ratios (R values) for each unique peptide (DMSO/compound treated) were quantified with in-house CIMAGE software (Weerapana et al., 2010) using default parameters (3 MS1 acquisitions per peak and signal to noise threshold set to 2.5). Site-specific engagement of cysteine residues was assessed by blockade of IA-alkyne probe labeling. […] Ratios for unique peptide sequences were calculated for each experiment; overlapping peptides with the same modified cysteine (e.g., different charge states, elution times or tryptic termini) were grouped together and the median ratio was reported as the final ratio (R). Additionally, ratios for peptide sequences containing multiple cysteines were grouped together. When aggregating data across experimental replicates, the mean of each experimental median R was reported. The peptide ratios reported by CIMAGE were further filtered to ensure the removal or correction of low-quality ratios in each individual dataset. The quality filters applied were the following: removal of half-tryptic peptides, removal of peptides with more than one tryptic miscleaved, removal of peptides with R=20 and only a single MS2 event triggered during the elution of the parent ion, removal of non-unique peptides. Further filtering was then performed as described below for each experiment type.
(§3) Samples (500 μL, 1.7 mg/mL) were treated with iodoacetamide desthiobiotin (IA-DTB, 5 μL of 10 mM stock in DMSO, final concentration: 100 μM) for 1 h at ambient temperature. Ice-cold MeOH (500 μL) and CHCl3 (200 μL) were then added, the mixture was vortexed and centrifuged (10,000 g, 10 min, 4° C.) to afford a protein disc at the interface of CHCl3 and aqueous layers. Both layers were aspirated without perturbing the disk, which was re-suspended in cold methanol (500 μL) and CHCl3 (200 μL) by sonication. The proteins were pelleted (10,000 g, 10 min, 4° C.), and the resulting pellets were re-suspended in a buffer (90 μL) containing 9M urea, 10 mM DTT and 50 mM triethylammonium bicarbonate ( 1/20 dilution of 1.0 M stock solution, pH 8.5) by thorough pipetting up and down. The resulting mixture was heated at 65° C. for 20 min. Sample was cooled to room temp, iodoacetamide (10 μL, 500 mM solution in H2O) was added, and the samples were incubated at 37° C. for 30 min with shaking.
(§4) At individual TMT experiment level, the following filters were applied to remove low-quality peptides: removal of non-unique peptides; removal of half-tryptic peptides; removal of peptides with more than one internal miscleaved site; removal of peptides with low (<10,000) sum of reporter ion intensities for control channels, and peptides with high variation between the replicate control channels (coefficient of variance >0.5). R values (compound-treated vs. DMSO-treated) for each peptide entry were calculated using the reporter ion intensities of DMSO and compound treated TMT channels for each treatment group with a maximum ratio cap of 20. […]

[2] = molecular target: T2, CBLB E3 ubiquitin-protein ligase CBL-B C686 (Q13191) (Homo sapiens, UniProt Q13191); assay: Cysteine reactivity ABPP; type: binding
T2 construct: endogenous in cells; host or cells: primary human T cells
T2 sequence (Q13191 whole entry): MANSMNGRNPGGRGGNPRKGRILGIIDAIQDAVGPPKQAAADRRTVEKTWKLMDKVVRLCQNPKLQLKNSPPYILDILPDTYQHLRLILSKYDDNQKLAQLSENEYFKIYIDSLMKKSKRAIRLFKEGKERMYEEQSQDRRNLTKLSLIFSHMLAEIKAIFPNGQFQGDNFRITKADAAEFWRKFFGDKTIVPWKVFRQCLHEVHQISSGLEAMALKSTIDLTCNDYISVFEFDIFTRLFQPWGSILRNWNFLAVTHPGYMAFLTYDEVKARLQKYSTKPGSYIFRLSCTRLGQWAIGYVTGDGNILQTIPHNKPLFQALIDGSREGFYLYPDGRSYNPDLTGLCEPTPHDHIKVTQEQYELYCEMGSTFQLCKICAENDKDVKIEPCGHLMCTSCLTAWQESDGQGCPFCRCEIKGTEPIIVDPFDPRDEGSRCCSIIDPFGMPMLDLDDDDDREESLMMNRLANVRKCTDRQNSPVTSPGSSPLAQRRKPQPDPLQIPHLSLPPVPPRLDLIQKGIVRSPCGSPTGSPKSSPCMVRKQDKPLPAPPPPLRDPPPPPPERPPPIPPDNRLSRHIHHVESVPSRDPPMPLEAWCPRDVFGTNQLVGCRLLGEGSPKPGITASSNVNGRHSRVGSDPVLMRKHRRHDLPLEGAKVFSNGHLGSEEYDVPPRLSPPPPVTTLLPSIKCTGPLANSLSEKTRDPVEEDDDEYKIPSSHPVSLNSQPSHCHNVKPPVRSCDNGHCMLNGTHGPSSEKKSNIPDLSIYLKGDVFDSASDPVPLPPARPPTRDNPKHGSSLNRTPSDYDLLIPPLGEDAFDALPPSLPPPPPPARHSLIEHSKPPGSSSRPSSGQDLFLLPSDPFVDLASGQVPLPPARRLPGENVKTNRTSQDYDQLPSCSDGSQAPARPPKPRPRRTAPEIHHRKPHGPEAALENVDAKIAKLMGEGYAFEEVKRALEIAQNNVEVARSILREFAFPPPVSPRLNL
Procedure: as §1, §2, §3, §4

[3] = molecular target: T3, JAK1 Tyrosine-protein kinase JAK1 C810, C817 (P23458) (Homo sapiens, UniProt P23458); assay: Cysteine reactivity ABPP; type: binding
T3 construct: endogenous in cells; host or cells: primary human T cells
T3 sequence (P23458 whole entry): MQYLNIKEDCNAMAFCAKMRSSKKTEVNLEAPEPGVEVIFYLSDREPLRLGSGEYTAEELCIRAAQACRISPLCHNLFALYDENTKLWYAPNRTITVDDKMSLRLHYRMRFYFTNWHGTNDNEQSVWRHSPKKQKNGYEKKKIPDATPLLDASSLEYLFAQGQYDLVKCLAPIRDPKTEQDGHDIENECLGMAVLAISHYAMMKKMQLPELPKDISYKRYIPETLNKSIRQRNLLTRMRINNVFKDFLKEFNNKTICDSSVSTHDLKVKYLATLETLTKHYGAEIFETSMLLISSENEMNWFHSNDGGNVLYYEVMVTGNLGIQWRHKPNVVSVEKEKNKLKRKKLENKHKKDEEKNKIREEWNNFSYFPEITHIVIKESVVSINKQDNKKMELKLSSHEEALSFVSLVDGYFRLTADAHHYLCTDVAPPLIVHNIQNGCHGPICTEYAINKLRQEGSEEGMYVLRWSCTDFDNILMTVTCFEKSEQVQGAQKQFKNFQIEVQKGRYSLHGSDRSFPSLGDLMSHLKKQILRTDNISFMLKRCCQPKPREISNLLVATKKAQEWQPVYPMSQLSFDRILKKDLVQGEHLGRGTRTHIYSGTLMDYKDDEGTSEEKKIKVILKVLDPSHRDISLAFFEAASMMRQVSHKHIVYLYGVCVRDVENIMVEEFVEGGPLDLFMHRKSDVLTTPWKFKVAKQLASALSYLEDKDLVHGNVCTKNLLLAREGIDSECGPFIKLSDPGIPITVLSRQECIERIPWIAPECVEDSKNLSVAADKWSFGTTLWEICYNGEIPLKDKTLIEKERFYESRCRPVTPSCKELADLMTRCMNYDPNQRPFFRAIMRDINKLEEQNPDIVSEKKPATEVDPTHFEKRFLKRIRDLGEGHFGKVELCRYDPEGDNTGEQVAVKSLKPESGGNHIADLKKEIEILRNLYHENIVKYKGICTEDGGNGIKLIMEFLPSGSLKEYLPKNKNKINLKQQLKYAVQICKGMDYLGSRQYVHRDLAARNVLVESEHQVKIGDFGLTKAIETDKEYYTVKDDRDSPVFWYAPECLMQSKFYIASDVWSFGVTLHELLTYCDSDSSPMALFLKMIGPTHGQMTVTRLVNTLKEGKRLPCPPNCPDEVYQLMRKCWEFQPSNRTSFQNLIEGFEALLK
Procedure: as §1, §2, §3, §4

[4] = molecular target: T4, PFKFB3 6-phosphofructo-2-kinase/fructose-2,6-bisphosphatase 3 C155 (Q16875) (Homo sapiens, UniProt Q16875); assay: Cysteine reactivity ABPP; type: binding
T4 construct: endogenous in cells; host or cells: primary human T cells
T4 sequence (Q16875 whole entry, one chain of several): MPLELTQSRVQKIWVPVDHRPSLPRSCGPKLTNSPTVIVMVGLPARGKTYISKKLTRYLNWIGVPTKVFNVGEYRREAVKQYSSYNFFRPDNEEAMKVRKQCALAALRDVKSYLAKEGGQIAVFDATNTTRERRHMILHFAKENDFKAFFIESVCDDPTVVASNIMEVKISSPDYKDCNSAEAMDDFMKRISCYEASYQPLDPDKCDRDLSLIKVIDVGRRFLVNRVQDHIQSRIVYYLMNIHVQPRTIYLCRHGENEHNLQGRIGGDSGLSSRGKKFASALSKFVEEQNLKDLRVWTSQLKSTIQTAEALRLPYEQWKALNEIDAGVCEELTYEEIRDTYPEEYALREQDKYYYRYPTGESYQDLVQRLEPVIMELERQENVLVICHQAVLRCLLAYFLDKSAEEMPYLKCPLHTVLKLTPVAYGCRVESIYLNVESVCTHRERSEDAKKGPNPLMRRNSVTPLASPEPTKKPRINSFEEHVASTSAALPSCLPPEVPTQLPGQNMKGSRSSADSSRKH
Procedure: as §1, §2, §3, §4

[5] = molecular target: T5, PTPN11 Tyrosine-protein phosphatase non-receptor type 11 C259 (Q06124) (Homo sapiens, UniProt Q06124); assay: Cysteine reactivity ABPP; type: binding
T5 construct: endogenous in cells; host or cells: primary human T cells
T5 sequence (Q06124 1-593): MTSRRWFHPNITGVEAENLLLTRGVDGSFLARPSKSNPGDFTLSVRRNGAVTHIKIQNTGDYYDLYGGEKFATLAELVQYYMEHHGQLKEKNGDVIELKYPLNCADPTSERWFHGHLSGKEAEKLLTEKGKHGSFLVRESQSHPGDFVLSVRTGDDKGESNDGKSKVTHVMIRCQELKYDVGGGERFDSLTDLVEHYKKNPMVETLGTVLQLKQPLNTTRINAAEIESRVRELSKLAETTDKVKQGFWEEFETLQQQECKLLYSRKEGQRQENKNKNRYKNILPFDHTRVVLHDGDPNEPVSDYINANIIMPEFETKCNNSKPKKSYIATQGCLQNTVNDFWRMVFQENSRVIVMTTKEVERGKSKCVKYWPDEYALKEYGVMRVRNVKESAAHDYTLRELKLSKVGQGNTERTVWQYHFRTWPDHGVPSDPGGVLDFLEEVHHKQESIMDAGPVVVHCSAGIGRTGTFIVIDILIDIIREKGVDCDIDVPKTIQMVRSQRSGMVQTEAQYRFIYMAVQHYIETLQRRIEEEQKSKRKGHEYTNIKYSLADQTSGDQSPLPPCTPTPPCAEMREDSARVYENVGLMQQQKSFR
Procedure: as §1, §2, §3, §4

[6] = molecular target: T6, STAT3 Signal transducer and activator of transcription 3 C259 (P40763) (Homo sapiens, UniProt P40763); assay: Cysteine reactivity ABPP; type: binding
T6 construct: endogenous in cells; host or cells: primary human T cells
T6 sequence (P40763 whole entry, one chain of several): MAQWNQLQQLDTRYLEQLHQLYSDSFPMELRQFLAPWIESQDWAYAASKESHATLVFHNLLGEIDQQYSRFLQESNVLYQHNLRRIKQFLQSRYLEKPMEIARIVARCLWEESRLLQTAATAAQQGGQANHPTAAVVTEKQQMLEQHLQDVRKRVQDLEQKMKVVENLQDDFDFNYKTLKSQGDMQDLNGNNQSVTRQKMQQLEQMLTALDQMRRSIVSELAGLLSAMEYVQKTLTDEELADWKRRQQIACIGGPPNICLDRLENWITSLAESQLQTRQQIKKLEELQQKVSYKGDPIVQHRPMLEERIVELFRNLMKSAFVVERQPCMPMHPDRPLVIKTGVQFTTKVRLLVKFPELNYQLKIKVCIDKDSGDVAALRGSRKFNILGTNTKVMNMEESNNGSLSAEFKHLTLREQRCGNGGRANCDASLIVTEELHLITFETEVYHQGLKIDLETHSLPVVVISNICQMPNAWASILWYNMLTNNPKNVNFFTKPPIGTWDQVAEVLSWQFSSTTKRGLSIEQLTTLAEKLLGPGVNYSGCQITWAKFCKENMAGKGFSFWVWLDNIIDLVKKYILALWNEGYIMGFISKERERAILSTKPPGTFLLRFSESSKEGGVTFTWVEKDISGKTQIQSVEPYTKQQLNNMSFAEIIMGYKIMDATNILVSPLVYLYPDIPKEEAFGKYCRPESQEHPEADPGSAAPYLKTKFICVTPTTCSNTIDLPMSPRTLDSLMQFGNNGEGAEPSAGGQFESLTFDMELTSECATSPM
Procedure: as §1, §2, §3, §4

[7] = molecular target: T7, STAT3 Signal transducer and activator of transcription 3 C712, C718 (P40763) (Homo sapiens, UniProt P40763); assay: Cysteine reactivity ABPP; type: binding
T7 construct: endogenous in cells; host or cells: primary human T cells
T7 sequence (P40763 whole entry, one chain of several): as above
Procedure: as §1, §2, §3, §4

[8] = molecular target: T8, TYK2 Non-receptor tyrosine-protein kinase TYK2 C838 (P29597) (Homo sapiens, UniProt P29597); assay: Cysteine reactivity ABPP; type: binding
T8 construct: endogenous in cells; host or cells: primary human T cells
T8 sequence (P29597 whole entry): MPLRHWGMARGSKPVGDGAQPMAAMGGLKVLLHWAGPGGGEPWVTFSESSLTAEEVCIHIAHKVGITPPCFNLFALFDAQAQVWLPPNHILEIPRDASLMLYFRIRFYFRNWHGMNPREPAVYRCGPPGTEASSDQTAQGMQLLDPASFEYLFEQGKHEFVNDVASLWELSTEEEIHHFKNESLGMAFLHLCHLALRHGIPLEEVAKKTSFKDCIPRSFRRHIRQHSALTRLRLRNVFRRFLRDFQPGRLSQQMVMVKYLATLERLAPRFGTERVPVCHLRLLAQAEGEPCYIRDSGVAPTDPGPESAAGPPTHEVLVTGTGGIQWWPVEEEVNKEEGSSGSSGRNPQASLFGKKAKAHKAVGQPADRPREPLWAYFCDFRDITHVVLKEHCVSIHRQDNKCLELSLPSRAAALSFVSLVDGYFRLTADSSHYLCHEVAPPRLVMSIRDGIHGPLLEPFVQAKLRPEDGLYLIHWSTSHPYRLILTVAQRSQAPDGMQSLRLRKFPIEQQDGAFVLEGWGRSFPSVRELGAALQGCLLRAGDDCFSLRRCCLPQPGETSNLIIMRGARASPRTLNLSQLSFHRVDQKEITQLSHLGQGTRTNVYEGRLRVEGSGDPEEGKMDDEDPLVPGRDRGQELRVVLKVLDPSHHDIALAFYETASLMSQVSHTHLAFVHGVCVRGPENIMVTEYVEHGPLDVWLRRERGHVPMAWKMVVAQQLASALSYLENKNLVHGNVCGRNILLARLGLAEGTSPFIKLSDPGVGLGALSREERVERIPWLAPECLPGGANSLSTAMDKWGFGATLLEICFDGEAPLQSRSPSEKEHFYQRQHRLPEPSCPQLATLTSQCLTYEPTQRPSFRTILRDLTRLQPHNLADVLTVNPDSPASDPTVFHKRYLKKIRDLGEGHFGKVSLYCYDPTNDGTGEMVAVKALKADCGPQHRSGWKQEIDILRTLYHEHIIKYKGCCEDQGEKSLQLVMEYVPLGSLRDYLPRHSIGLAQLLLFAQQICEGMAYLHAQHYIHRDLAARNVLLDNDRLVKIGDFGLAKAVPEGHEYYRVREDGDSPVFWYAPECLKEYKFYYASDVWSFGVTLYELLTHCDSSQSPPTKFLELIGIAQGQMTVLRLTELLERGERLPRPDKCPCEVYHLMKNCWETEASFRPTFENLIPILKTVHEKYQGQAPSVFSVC
Procedure: as §1, §2, §3, §4

[9] = system: primary human T cells; assay: Multidimensional screen for inhibition of T cell activation; type: cell-based
Procedure: Non-tissue culture treated 96-well plates are pre-coated with αCD3 (5 μg/mL) and αCD28 antibodies (2 μg/mL) in PBS (100 μL/well) and left at 4° C. overnight. Freshly isolated T cells are re-suspended in RPMI media supplemented with 10% FBS, L-glutamine (2 mM), penicillin (100 U/mL), and streptomycin (100 μg/mL) at 2×10^6 cells/mL. Compound stocks (200×) in DMSO are diluted to 2× stocks in the working RPMI media in another 96-well plate. The pre-coated 96-well treatment plates are washed with PBS (2×200μL), T cells (100 μL/well, 2×10^5 cells/well) are then added to the wells, followed by the addition of 2× compound stocks in RPMI media (100 μL). […]
The levels of secreted IL2, IFNγ and TNFα after incubating T cells in the presence of DMSO or electrophilic compounds under TCR-stimulating conditions are measured using DuoSet ELISA cytokine kits (R&D Systems) in clear microplates (R&D Systems) according to manufacturer's instructions and read using a CLARIOstar (BMG Labtech) plate reader (450 nm).
A multidimensional screen can be preformed of a focused library of structurally elaborated electrophilic small molecules to identify compounds that suppress T cell activation at low-μM concentrations without causing cytotoxicity. […] The viability of T cells can be monitored by flow cytometry using near-IR live-dead stain.

[10] = molecular target: T9, BIRC2 (C45) (Homo sapiens, UniProt Q13490); assay: isoTOP-ABPP of elaborated compound data (DMF datasets); type: binding; conditions: maximal ratio of 20 = ≥95% reduction in MS1 peak area
T9 construct: endogenous in cells; host or cells: primary human T cells
Procedure: as §1
(§5) The heavy/light isoTOP-ABPP ratios (R values) for each unique peptide (DMSO/compound treated) were quantified with in-house CIMAGE software (Weerapana et al., 2010) using default parameters (3 MS1 acquisitions per peak and signal to noise threshold set to 2.5). Site-specific engagement of cysteine residues was assessed by blockade of IA-alkyne probe labeling. […] Ratios for unique peptide sequences were calculated for each experiment; overlapping peptides with the same modified cysteine (e.g., different charge states, elution times or tryptic termini) were grouped together and the median ratio was reported as the final ratio (R). […]

[11] = molecular target: T10, CASP2 (C366, C370) (Homo sapiens, UniProt P42575); assay: as above; type: binding; conditions: maximal ratio of 20 = ≥95% reduction in MS1 peak area
T10 construct: Soluble and particulate proteomic fractions were separated by ultracentrifugation; endogenous in cells; host or cells: primary human T cells
T10 sequence (P42575 1-452): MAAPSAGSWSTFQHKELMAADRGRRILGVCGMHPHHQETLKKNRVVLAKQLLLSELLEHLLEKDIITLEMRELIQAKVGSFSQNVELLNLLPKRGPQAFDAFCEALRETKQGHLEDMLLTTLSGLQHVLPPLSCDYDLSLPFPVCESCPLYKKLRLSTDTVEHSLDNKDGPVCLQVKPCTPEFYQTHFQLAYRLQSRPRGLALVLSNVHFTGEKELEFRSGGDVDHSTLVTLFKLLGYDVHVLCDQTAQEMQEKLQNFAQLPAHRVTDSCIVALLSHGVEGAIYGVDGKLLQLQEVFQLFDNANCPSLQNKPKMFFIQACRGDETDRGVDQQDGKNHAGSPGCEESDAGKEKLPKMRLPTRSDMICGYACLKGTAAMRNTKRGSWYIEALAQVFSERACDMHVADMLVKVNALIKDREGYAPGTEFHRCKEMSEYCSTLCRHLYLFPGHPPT
Procedure: as §1, §5

Row | Cysteine reactivity proteomic data ([1]; 100 μM) | Cysteine reactivity proteomic data ([1]; 500 μM) | Cysteine reactivity proteomic data ([2]; 100 μM) | Cysteine reactivity proteomic data ([2]; 500 μM) | Cysteine reactivity proteomic data ([3]; 100 μM) | Cysteine reactivity proteomic data ([3]; 500 μM) | Cysteine reactivity proteomic data ([4]; 100 μM) | Cysteine reactivity proteomic data ([4]; 500 μM) | Cysteine reactivity proteomic data ([5]; 100 μM) | Cysteine reactivity proteomic data ([5]; 500 μM) | Cysteine reactivity proteomic data ([6]; 100 μM) | Cysteine reactivity proteomic data ([6]; 500 μM) | Cysteine reactivity proteomic data ([7]; 100 μM) | Cysteine reactivity proteomic data ([7]; 500 μM) | Cysteine reactivity proteomic data ([8]; 100 μM) | Cysteine reactivity proteomic data ([8]; 500 μM) | SMILES | suppress T cell activation ([9]; anti-CD3/anti-CD28 activation, measured 24 h later by reductions in secreted IL-2, IFN-γ and CD69, CD25 expression) | viability of T cells ([9]; flow cytometry, near-IR live-dead stain) | isoTOP-ABPP ratio R (DMSO/compound treated) [10] | isoTOP-ABPP ratio R (DMSO/compound treated) [11]
1 | −14.9577 | 58.3081 | 4.7619 | 84.7455 | 94.3358 | 99.489 | 81.7564 | 89.0944 | 50.0993 | 72.8049 | 58.1986 | 57.1888 | 42.1791 | 80.6157 | 96.4386 | 98.2637 | C=CC(=O)N(Cc1cccc(Cl)n1)c1ccc(C(=O)Nc2ccccc2)nc1 [Compound L4] | – | – | – | –
2 | – | – | – | – | – | – | – | – | – | – | – | – | – | – | – | – | CN(C)C=O [DMF] | > 65% | > 85% | 20 | 20
